Values quoted from earlier work as cited in patent EP1844783A1 (priority 2006, dated 2007).

System: EAE
Conditions: Craner et al., 2005

O=C1NC(=O)C(c2ccccc2)(c2ccccc2)N1 [phenytoin]
ameliorates the inflammatory cell infiltrate in EAE: 75%
